According to patent US10188622B2, “Use of a composition comprising fish oil and juice for the treatment and/or post treatment of cancer” (Smartfish AS, priority 2013, dated 2019):
Several values for one entry are separate records, joined by “and”; a condition that tells them apart may be missing. Identical values can stand only once.

System: MP2 cells co-cultured with NK (IL-2) cells
Assay: Enzymatic caspase-3 assay (CaspACE-3) in co-culture of pancreatic cancer cells and NK cells
Assay type: cell-based, human
Settings: 48 hours; for Casp-3, X1 / Casp-3, X2 / Casp-3, X3 / Casp-3, Mean: MP2 cells + NK (IL-2); for Casp-3, X1: experiment X1; for Casp-3, X1 / Casp-3, X2 / Casp-3, X3: RvD1 and DHA 50 nM; for Casp-3, X2: experiment X2; for Casp-3, X3: experiment X3; for Casp-3, Mean: mean of X1-X3; for caspase-3 expression (mean ± 2× standard error): PDAC (MP2) cells co-cultured with NK cells, as stated in text
Method: Mia Paca2 (MP2) and L3.6 cells from pancreatic ductal adenocarcinoma so (PDAC) were obtained from T. Donahue, UCLA Surgery and were propagated in Dulbecco's Modified Eagle's Medium (DME) with 10% foetal calf serum. 10,000 cells were plated in each well of 24-well plates and were grown at 37° C. and 24 h to near confluence before testing.
These were isolated from human blood by NK cell isolation kit (Stem cell technologies, Vancouver, Canada). NK cells were activated by treatment with IL-2 or IL2/CD16 as described in Tseng, H. C. et al. “Increased lysis of stem cells but not their differentiated cells by natural killer cells; de-differentiation or reprogramming activates NK cells.” PLOS One 5(7): e11590, 2010.
Composition of the invention (Nutrifriend 2000) containing DHA (1000 mg/200 ml) and EPA (1000 mg/200 ml) was purchased by the company Smartfish AS, Oslo, For use in cell culture, diluted 1:2 with fetal calf serum, sonicated for 30 sec and then diluted 1:100 in DMEM with 10% fetal calf serum.
NK cells were added to MP2 or L3.6 cells at a ratio of 5 NK cells per 1 MP2 cell. The co-cultures were treated with Smartfish. Addition of DHA (50 nM) or resolvin D1 (RvD1 from Cayman Chemical company, Ann Arbor, Mich., 50 nM) were tested as controls. The co-cultures is were grown for 48 hours, harvested and tested by the caspase-3 assay.
The enzymatic caspase-3 assay was performed by the CaspACE-3 assay G-7351 (Promega Corporation, Madison, Wis.) according to the manufacturer's instructions.
The data were analyzed by comparing the range of means (mean+/−2× standard error of mean). When indicated the exact value was calculated by the Fisher exact test.

## CC/C=C\C/C=C\C/C=C\C/C=C\C/C=C\C/C=C\CCC(=O)O [DHA, docosahexanoic acid]
  Casp-3, X1: 5.7 µM
  Casp-3, X2: 6.6 µM
  Casp-3, X3: 6 µM
  Casp-3, Mean: 6.1 µM
  caspase-3 expression (mean ± 2× standard error): 6.1 µM and 6.1 ± 0.48 µM

## CC/C=C\C[C@H](O)/C=C/C=C\C=C\C=C\[C@@H](O)[C@@H](O)C/C=C\CCC(=O)O [RvD1, resolvin D1]
  Casp-3, X1: 6 µM
  Casp-3, X2: 6.3 µM
  Casp-3, X3: 6.6 µM
  Casp-3, Mean: 6.3 µM
  caspase-3 expression (mean ± 2× standard error): 6.3 ± 0.31 µM
Listed as resolvinD1
  caspase-3 expression (mean ± 2× standard error): 6.3 ± 0.31 µM
